What was measured:
human subjects = experiment: Gastrointestinal tolerance study of iced cupcakes (Test Protocol 1; randomized, double-blind, crossover); format: in vivo; settings: after 24 hours; compared to SWEETENER 1
From the text: In many embodiments, the sweetener compositions of the invention have improved gastrointestinal tolerance in humans. For example, the sweetener compositions of the invention have improved gastrointestinal tolerance as compared to maltitol. Gastrointestinal tolerance can be measured, for example, using a randomized, double blind, crossover, repeated measure design protocol, such described in Test Protocol 1 in the Example section of the application. In a representative test, a test food comprising a sweetener to be tested is consumed by human subjects, and the subjects are required to complete a gastrointestinal survey at various intervals, prior to and after, consuming the test food. For example, the human subject may complete the survey at 0 hours (i.e., just prior to consuming the test food), 2 hours, 6 hours, 12 hours, and 24 hours after consuming the test food. The food is then rated at the various time periods for gastrointestinal tolerance as evidenced by gastrointestinal effects such as gastrointestinal rumbling, abdominal cramping, gas/bloating, excessive flatulence, loose stools, and diarrhea. […]
The study used a randomized, double-blind, crossover, repeated measure design. […] Diarrhea was recorded as a yes/no response. […]

[1] = in vivo; cited from earlier work

Structure (SMILES)	abdominal cramping (human subjects)	fraction absorbed in the small intestine and excreted unchanged in the urine [1]
OC[C@@H](O)[C@@H](O[C@H]1O[C@H](CO)[C@@H](O)[C@H](O)[C@H]1O)[C@H](O)[C@@H](O)CO [COMP. SWEETENER A, Maltitol]	Significantly milder	–
OC[C@@H](O)[C@@H](O)CO [Erythritol]	–	about 90%
